What was measured:
[1] = tested on: mouse lung endothelial cells; details: 20 ng/ml VEGF, 8 h
Protocol: The formation of vascular tube-like structures by wild type and DiYF mouse lung endothelial cells were assessed on the basement membrane matrix preparation. Six well plates were coated with 0.5 ml of Matrigel according to the manufacturer's instructions. Wild type and DiYF mouse lung endothelial cells were detached from the tissue culture flasks using 20 mM EDTA. Cells were washed twice with sterile 1×PBS and seeded on Matrigel coated plate. Medium was supplemented with or without 20 ng/ml VEGF and further incubated at 37° C. for 8 h. The tube formation was observed using an inverted phase contrast microscope (Leica) and photographs were taken from each well. Using ImagePro software, the degree of tube formation was quantified by measuring the length of tubes in random fields.

[2] = biological target: T1, αvβ3 integrin (Mus musculus, UniProt O54890+P43406); assay: Fibrinogen binding assay (FACS); type: cell-based; details: WT EC; 20 ng/ml VEGF or 1 mM MnCl2
T1 construct: endogenous in cells; host or cells: primary mouse lung endothelial cells
T1 sequence (O54890 26-787): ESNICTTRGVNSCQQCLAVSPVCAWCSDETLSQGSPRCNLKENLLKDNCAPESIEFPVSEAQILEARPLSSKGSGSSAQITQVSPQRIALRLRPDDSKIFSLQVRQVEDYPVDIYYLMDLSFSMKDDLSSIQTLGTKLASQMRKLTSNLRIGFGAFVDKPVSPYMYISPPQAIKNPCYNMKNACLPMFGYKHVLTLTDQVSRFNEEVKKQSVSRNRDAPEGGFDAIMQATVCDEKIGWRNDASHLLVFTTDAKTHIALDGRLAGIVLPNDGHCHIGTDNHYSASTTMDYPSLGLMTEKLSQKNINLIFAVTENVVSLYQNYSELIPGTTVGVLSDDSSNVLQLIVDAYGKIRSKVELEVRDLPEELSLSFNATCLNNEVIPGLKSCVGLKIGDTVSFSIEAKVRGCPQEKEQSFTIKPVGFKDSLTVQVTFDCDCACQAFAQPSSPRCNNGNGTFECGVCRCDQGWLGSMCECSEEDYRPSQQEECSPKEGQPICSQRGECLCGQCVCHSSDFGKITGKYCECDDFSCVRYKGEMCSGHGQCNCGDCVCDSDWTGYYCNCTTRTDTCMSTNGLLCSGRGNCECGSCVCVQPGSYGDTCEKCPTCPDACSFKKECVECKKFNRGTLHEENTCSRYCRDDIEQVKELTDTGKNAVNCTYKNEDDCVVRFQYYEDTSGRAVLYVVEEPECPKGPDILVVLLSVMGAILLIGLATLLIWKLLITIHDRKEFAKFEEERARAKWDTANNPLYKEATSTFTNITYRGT
T1 sequence (P43406 31-885 limits assumed): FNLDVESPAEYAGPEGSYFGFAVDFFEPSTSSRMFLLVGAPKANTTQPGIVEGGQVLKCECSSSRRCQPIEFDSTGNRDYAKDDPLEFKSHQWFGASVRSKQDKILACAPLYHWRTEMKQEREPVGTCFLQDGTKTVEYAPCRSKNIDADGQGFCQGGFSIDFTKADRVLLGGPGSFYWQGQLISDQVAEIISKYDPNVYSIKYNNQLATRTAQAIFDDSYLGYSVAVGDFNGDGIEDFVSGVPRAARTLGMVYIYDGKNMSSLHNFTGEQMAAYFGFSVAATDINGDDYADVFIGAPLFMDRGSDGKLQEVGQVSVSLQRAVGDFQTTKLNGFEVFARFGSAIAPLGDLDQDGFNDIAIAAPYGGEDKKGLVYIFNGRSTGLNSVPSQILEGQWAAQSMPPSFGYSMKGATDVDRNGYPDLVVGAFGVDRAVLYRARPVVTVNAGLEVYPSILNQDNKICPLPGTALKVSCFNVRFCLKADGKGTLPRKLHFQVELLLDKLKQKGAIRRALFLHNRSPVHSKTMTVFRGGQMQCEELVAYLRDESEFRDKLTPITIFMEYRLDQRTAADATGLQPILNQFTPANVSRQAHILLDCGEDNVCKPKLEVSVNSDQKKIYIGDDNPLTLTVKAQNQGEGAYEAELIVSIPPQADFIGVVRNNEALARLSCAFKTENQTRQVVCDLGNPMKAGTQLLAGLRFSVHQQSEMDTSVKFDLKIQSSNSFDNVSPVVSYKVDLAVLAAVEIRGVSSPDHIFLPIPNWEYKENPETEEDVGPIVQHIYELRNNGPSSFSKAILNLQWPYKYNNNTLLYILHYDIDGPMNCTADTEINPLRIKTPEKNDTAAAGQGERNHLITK
T1 sequence (P43406 887-1044 limits assumed): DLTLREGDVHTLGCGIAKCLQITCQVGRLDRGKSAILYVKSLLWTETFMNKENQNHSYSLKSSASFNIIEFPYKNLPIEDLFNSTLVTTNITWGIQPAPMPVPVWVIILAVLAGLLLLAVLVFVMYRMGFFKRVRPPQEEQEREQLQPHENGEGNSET
Protocol: (§1) To assess fibrinogen binding, semiconfluent wild type and DiYF mouse lung endothelial cells were serum starved for 4 h and further induced with 20 ng/ml VEGF-165, 20 ng/ml b-FGF or 1 mm MnC12. Fluorescein isothiocyanate (FITC)-labeled fibrinogen was added at a final concentration of 200 nM for 45 min. […] Fluorescence-activated cell sorting (FACS) was performed using a FACS Calibur (Becton Dickinson, San Jose, Calif.) and data were analyzed using CellQuest software program.

[3] = tested on: αvβ3 integrin; assay: Fibrinogen binding assay (FACS); type: cell-based, mouse; details: DiYF EC; 20 ng/ml VEGF or 1 mM MnCl2
Protocol: as §1

[4] = biological target: T1, αvβ3 integrin; assay: WOW-1 binding assay, mouse lung endothelial cells; type: cell-based; details: WT EC; 20 ng/ml VEGF or 1 mM MnCl2
Protocol: (§2) Wild type and DiYF mouse lung endothelial cells were serum starved for 4 h and further stimulated with 20 ng/ml VEGF-165, 20 ng/ml b-FGF or 1 mm MnC12 separately. WoW-1 Fab was added at a final concentration of […], followed by addition of Fluorescein isothiocyanate (FITC) conjugated goat anti-mouse IgG at 10 μg/ml. After 30 min cells were fixed with 3.7% formaldehyde/PBS for 15 min, washed twice with 1×PBS and FACS was performed using a FACS Calibur (Becton Dickinson, San Jose, Calif.) instrument and data were analyzed using CellQuest software program.

[5] = tested on: αvβ3 integrin; assay: WOW-1 binding assay, mouse lung endothelial cells; type: cell-based; details: DiYF EC; 20 ng/ml VEGF or 1 mM MnCl2
Protocol: as §2

VEGF
effect on length of the tubes ([1]; DiYF EC): a little effect | increase in the length of the tubes ([1]; WT EC): about 3 fold | increase of fibrinogen binding [2]: at least 6 fold | increase of fibrinogen binding [3]: 3 fold | increase in WOW-1 binding [4]: 9 fold | increase in WOW-1 binding [5]: 3.5 fold
